Test results published in patent US20200093932A1, “TREATMENT OF CANCER” (BlueLink Pharmaceuticals, Inc., priority 2016, published 2020).

Legend:
Type in all cases: in vivo
[1] = system: B16.F10 mouse melanoma tumor model; test: Example 4: CRLX101 + NLG-919 analog versus Irinotecan + NLG-919 analog, tumor growth inhibition and delay; conditions: for Inhibit tumor growth?: B16.F10 SC tumors in mice, CRLX101 6 mg/kg IV q7dx2 (Day 6, 13), NLG-919 analog 12.5 mg/kg IP bid Day 6-19, Irinotecan 100 mg/kg q7dx2 (Day 6, 13); for TGI vs. Control (%): same dosing, relative to vehicle control
Experimental: On Day 1, B16.F10 cells, passage 3, were suspended in DMEM (Dulbecco's Modified Eagle Medium) and implanted subcutaneously (SC) in mice. […] The dose was 100 mg/kg q7dx2, i.e., administered at a dose volume of 10 mL/kg on Day 6 and Day 13 post tumor implantation as a monotherapy and in combination.
(§1) Tumor volumes were measured 3 times every week using the equation (width*width*length)/2, in mm^3. Tumor growth inhibition (TGI) was determined by comparing the mean tumor volume of the treated group with the mean tumor volume of the control group, as the decrease in tumor volume of the treated group as a percent of total tumor volume of the control group. The equation to calculate TGI is (1-(treated volume/control volume))*100.
(§2) Tumor growth delay (TGD) was determined as the number of days between when the control group reached the tumor volume endpoint and when the treated group reached the tumor volume endpoint.

[2] = system: B16.F10 mouse melanoma tumor model; test: Example 1: CRLX101 with NLG-919 analog or INCB-024360 analog, tumor growth inhibition and delay
Experimental: On Day 1, B16.F10 cells, passage 3, were suspended in DMEM (Dulbecco's Modified Eagle Medium) and implanted subcutaneously (SC) in mice. […] The dose was 100 mg/kg administered PO twice every day with a dose volume of 10 mL/kg for 14 days, from Day 7 to Day 20 post tumor implantation as a monotherapy and in combination with CRLX101
as §1, §2

[3] = system: B16.F10 mouse melanoma tumor model; test: Example 5: CRLX101 + NLG-919 analog versus anti-PD-1 antibody + NLG-919 analog, tumor growth inhibition and delay
Experimental: On Day 1, B16.F10 cells, passage 3, were suspended in DMEM (Dulbecco's Modified Eagle Medium) and implanted subcutaneously (SC) in mice.
as §1, with “(1−(treated” for “(1-(treated”
as §2

[4] = system: B16.F10 mouse melanoma tumor model; test: Example 3: CRLX101 with Indoximod, tumor growth inhibition and delay
Experimental: On Day 1, B16.F10 cells, passage 2, were suspended in DMEM (Dulbecco's Modified Eagle Medium) and implanted subcutaneously (SC) in mice. When the mean tumor volume reached 69 mm^3, the mice were randomized into study groups and given one of the following treatments: • a control vehicle (drinking water with the sweetening agent Equal™ added (2 g/L)) was included in the study from Day 7 to Day 19 post tumor implantation. • CRLX101 administered IV at 6 mg/kg q7dx2, i.e. on Day 7 and Day 14 at a dose volume of 10 mL/kg as monotherapy and in combination. • Indoximod (lot # MKBQ8091V, Sigma-Aldrich) was administered in the drinking water at a concentration of 2 mg/mL from Day 7 to Day 19 post tumor implantation as a monotherapy and in combination with CRLX101. The water had Equal™ added (2 g/L).
Tumor volumes were measured 3 times every week using the equation (width*width*length)/2, in mm^3. The endpoint for tumor volume was 2000 mm^3. Tumor growth inhibition (TGI) was determined by comparing the mean tumor volume of the treated group with the mean tumor volume of the control group, as the decrease in tumor volume of the treated group as a percent of total tumor volume of the control group. […]
as §2

[5] = system: B16.F10 mouse melanoma tumor model; test: Example 2: CRLX101 with INCB-024360, tumor growth inhibition and delay
Experimental: On Day 1, B16.F10 cells, passage 5, were suspended in DMEM (Dulbecco's Modified Eagle Medium) and implanted subcutaneously (SC) in mice. When the mean tumor volume reached 60 mm^3, the mice were randomized into study groups and given one of the following treatments: • a control vehicle (20% DMSO/7.5% propylene glycol/5% Tween 80/67.5% PBS) administered IP bid for 13 days, from Day 5 to Day 17, with a dose volume of 10 mL/kg • CRLX101 administered IV at 6 mg/kg q7dx2, i.e. on Day 5 and Day 12 at a dose volume of 10 mL/kg as monotherapy and in combination • INCB-024360 (lot #01, SelleckChem, Houston, Tex.) 10 mg/mL in 20% DMSO/[…]/5% Tween 80/67.5% PBS. The dose was 100 mg/kg administered PO twice every day with a dose volume of 10 mL/kg for 13 days, from Day 5 to […] post tumor implantation as a monotherapy and in combination with CRLX101
as §1, §2

[6] = same dosing, vs vehicle when the control group reached the tumor volume endpoint

SMILES: OC(CC1c2ccccc2-c2cncn21)C1CCCCC1 (stereo not shown) [NLG-919 analog]
- Inhibit tumor growth? [1]: did not inhibit tumor growth and No
- TGI vs. Control (%) [1]: 5%
- Inhibit tumor growth? ([2]; B16.F10 SC tumors in mice, CRLX101 6 mg/kg IV q7dx2 (Day 7, 14), NLG-919 analog 12.5 mg/kg IP bid Day 7-20, INCB-024360 analog 100 mg/kg PO bid Day 7-20): No
- TGI vs. Control (%) ([2]; same dosing, mean tumor volume vs vehicle when the control group reached the tumor volume endpoint): 23%
- Inhibit tumor growth? ([3]; B16.F10 SC tumors in mice, CRLX101 6 mg/kg IV q7dx2 (Day 6, 13), NLG-919 analog 12.5 mg/kg IP bid Day 6-19, anti-mouse PD-1 antibody 200 μg per mouse IP Day 6, 9, 13, 16): did not inhibit tumor growth and No
- TGI vs. Control (%) [3, 6]: 15%

SMILES: CCc1c2c(nc3ccc(OC(=O)N4CCC(N5CCCCC5)CC4)cc13)-c1cc3c(c(=O)n1C2)COC(=O)[C@]3(O)CC [Irinotecan]
- Inhibit tumor growth? [1]: No
- TGI vs. Control (%) [1]: −12%

SMILES: Cn1cc(C[C@@H](N)C(=O)O)c2ccccc21 [Indoximod]
- Inhibit tumor growth? ([4]; B16.F10 SC tumors in mice, CRLX101 6 mg/kg IV q7dx2 (Day 7, 14), Indoximod 2 mg/mL in drinking water Day 7-19): did not inhibit tumor growth and No
- TGI vs. Control (%) ([4]; same dosing, vs vehicle when the control group reached the tumor volume endpoint (2000 mm^3)): −49%

SMILES: NS(=O)(=O)NCCNc1nonc1/C(=N/O)Nc1ccc(F)c(Br)c1 [INCB-024360]
- Inhibit tumor growth? ([5]; B16.F10 SC tumors in mice, CRLX101 6 mg/kg IV q7dx2 (Day 5, 12), INCB-024360 100 mg/kg PO bid Day 5-18): did not inhibit tumor growth and No
- TGD (Day) ([5]; same dosing, days between control and treated group reaching the tumor volume endpoint): no TGD
- TGI vs. Control (%) [5, 6]: 20%
